Experimental data: BindingDB's records for doi:10.1016/S0960-894X(01)80506-0 (n/a, 1994)

What was measured:
Beta-lactamase TEM = Beta-lactamase TEM (Escherichia coli, UniProt P62593); assay: Concentration required for its inhibitory activity against Escherichia coli JT4(TEM1) class A beta-lactamase
Beta-lactamase [1] = molecular target: Beta-lactamase (Enterobacter cloacae, UniProt P05364); assay: Concentration required for its inhibitory activity against Enterobacter cloacae P99 class C beta-lactamase
Beta-lactamase (Enterobacter cloacae, UniProt P05364), sequence (P05364 whole entry): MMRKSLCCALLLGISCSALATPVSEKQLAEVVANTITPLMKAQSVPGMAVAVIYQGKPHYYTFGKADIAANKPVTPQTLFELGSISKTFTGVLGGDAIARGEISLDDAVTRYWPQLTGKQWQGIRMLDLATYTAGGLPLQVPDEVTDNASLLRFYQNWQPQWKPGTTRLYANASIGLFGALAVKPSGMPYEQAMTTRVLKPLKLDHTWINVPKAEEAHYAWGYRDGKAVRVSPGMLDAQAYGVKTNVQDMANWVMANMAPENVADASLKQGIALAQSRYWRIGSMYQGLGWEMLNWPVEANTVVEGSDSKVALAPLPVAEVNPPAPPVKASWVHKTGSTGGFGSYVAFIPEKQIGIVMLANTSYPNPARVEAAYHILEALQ

Beta-lactamase [2] = molecular target: Beta-lactamase (Pseudomonas aeruginosa (strain ATCC 15692 / DSM 22644 / CIP 104116 / JCM 14847 / LMG 12228 / 1C / PRS 101 / PAO1), UniProt P24735); assay: Concentration required for its inhibitory activity against Pseudomonas aeruginosa class C beta-lactamase
Beta-lactamase (Pseudomonas aeruginosa (strain ATCC 15692 / DSM 22644 / CIP 104116 / JCM 14847 / LMG 12228 / 1C / PRS 101 / PAO1), UniProt P24735), sequence (P24735 whole entry): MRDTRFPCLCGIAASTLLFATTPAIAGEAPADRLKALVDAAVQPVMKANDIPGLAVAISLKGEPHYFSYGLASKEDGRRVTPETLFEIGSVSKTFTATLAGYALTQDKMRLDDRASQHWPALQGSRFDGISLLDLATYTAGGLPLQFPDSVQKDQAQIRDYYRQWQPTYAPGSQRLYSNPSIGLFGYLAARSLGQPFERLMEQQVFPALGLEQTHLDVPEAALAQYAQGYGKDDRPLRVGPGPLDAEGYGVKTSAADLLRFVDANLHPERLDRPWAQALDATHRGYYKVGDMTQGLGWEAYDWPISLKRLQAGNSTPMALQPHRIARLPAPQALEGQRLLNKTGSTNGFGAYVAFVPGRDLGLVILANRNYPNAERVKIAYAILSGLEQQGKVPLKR

Beta-lactamase [3] = molecular target: T1, Beta-lactamase (Proteus mirabilis, UniProt P30897); assay: Concentration required for its inhibitory activity against Proteus mirabilis C889 class A beta-lactamase
T1 sequence (P30897 whole entry): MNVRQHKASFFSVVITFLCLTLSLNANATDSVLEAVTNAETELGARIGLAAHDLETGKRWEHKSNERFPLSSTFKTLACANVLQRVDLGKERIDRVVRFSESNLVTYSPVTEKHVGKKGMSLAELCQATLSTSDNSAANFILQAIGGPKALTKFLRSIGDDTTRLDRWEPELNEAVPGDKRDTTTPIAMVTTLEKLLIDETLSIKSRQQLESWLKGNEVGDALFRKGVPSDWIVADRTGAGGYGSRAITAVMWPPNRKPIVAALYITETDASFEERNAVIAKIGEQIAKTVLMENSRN

Beta-lactamase [4] = molecular target: T2, Beta-lactamase (Escherichia coli, UniProt Q2V0Y6); assay: Concentration required for its inhibitory activity against Escherichia coli K12(PSE4) class A beta-lactamase
T2 sequence (Q2V0Y6 whole entry): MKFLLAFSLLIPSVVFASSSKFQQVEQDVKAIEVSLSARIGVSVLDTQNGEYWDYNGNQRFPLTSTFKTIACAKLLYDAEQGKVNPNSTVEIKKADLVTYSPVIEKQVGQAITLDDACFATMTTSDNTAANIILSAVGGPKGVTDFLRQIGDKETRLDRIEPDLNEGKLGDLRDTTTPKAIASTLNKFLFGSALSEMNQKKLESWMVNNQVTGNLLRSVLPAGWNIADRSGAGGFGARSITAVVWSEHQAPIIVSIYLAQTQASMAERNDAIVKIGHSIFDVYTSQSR

Beta-lactamase OXA-1 = Beta-lactamase OXA-1 (Escherichia coli, UniProt P13661); assay: Concentration required for its inhibitory activity against Escherichia coli K12(OXA1) class D beta-lactamase
Beta-lactamase OXA-1, sequence (P13661 whole entry): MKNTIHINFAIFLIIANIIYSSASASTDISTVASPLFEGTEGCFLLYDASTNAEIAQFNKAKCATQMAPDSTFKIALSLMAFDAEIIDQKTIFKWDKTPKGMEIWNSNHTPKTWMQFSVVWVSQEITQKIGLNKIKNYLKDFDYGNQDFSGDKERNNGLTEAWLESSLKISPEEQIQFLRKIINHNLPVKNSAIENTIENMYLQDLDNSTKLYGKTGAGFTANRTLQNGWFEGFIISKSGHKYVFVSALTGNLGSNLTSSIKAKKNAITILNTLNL

Beta-lactamase TEM, sequence (P62593 whole entry): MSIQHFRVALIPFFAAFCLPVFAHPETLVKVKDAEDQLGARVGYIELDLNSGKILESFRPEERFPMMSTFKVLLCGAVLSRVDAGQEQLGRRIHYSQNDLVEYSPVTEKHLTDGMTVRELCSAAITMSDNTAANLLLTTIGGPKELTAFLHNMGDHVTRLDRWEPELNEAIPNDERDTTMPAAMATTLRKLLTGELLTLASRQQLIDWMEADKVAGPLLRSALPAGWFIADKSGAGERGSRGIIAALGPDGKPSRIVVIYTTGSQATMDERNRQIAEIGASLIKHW

Row | SMILES | IC50 (Beta-lactamase TEM) | IC50 (Beta-lactamase [1]) | IC50 (Beta-lactamase [2]) | IC50 (Beta-lactamase [3]) | IC50 (Beta-lactamase [4]) | IC50 (Beta-lactamase OXA-1)
1 | CCCCCCCCCCc1ccccc1C(=O)O | 68.6 µM |  |  |  |  | 
2 | CCCCCCCCCCc1cccc(O)c1O |  | 83.8 µM |  |  |  | 
3 | C=CC/C=C\C/C=C\CCCCCCCc1cccc(O)c1C(=O)O [6-[8(Z),11(Z),14-pentadecatrienyl]salicylic acid] | 2.33 µM | 4.08 µM | 21 µM | 90.5 µM | 3.21 µM | 72.9 µM
4 | CCCCCCCCCCCCCCCc1cccc(O)c1O |  | 90.4 µM |  |  |  | 
5 | CCCCCCCCCCCCCCCc1cccc(OC)c1C(=O)O | 2.2 µM | 6.89 µM | 30.3 µM | 60.6 µM | 1.65 µM | > 91 µM
6 | O=C(O)[C@H]1/C(=C/CO)O[C@@H]2CC(=O)N21 [antibiotic MM 14151] |  |  |  |  |  | 1.75 µM
7 | CCCCCCCCCCCCCCCc1cccc(O)c1 [3-pentadecylphenol] |  | 23.6 µM |  |  | 65.6 µM | 
8 | CC(C)CCCCCCCCCCCCCc1cccc(O)c1C(=O)O | 26.7 µM | 24.8 µM | 44.1 µM |  |  | 
9 | CCCCCCCCCCc1cccc(O)c1 | 8.1 µM | 19.1 µM |  |  | 17.4 µM | 
10 | CCCCCCCCCCc1cccc(O)c1C(=O)O | 43.1 µM |  |  |  |  | 
11 | CC/C=C\C/C=C\C/C=C\CCCCCCCc1cccc(O)c1C(=O)O | 13.4 µM | 45.8 µM |  |  | 26.9 µM | 
12 | CCCCCCCCCCCCCCCCCc1cccc(O)c1C(=O)O | 5.04 µM | 2.65 µM | 24.1 µM | 22 µM | 1.85 µM | 77 µM
13 | CCCCCCCCc1cccc(O)c1C(=O)O |  |  |  | 15.5 µM | 63.9 µM | 
14 | CCC(C)CCCCCCCCCCCCc1cccc(O)c1C(=O)O (centres undefined) | 27.5 µM | 85.5 µM | 99.2 µM |  |  | 
